Assay results from ChEMBL document CHEMBL3217683, “Matched triplicate design sets in the optimisation of glucokinase activators maximising medicinal chemistry information content” (Medchemcomm, 2013).
pEC50, pIC50: −log10 of the molar value.

Tests used:
[1] = Clearance in rat; type: ADME, organism-based; details: in vivo
Rattus norvegicus = species: Rattus norvegicus; test: Unbound clearance in rat; type: ADME, organism-based; details: in vivo
[2] = Lipophilicity, log D of the compound; type: physicochemical; details: octanol/water
[3] = target: Voltage-gated inwardly rectifying potassium channel KCNH2 (Homo sapiens, UniProt Q12809); test: Inhibition of human ERG
Voltage-gated inwardly rectifying potassium channel KCNH2, sequence (Q12809 whole entry): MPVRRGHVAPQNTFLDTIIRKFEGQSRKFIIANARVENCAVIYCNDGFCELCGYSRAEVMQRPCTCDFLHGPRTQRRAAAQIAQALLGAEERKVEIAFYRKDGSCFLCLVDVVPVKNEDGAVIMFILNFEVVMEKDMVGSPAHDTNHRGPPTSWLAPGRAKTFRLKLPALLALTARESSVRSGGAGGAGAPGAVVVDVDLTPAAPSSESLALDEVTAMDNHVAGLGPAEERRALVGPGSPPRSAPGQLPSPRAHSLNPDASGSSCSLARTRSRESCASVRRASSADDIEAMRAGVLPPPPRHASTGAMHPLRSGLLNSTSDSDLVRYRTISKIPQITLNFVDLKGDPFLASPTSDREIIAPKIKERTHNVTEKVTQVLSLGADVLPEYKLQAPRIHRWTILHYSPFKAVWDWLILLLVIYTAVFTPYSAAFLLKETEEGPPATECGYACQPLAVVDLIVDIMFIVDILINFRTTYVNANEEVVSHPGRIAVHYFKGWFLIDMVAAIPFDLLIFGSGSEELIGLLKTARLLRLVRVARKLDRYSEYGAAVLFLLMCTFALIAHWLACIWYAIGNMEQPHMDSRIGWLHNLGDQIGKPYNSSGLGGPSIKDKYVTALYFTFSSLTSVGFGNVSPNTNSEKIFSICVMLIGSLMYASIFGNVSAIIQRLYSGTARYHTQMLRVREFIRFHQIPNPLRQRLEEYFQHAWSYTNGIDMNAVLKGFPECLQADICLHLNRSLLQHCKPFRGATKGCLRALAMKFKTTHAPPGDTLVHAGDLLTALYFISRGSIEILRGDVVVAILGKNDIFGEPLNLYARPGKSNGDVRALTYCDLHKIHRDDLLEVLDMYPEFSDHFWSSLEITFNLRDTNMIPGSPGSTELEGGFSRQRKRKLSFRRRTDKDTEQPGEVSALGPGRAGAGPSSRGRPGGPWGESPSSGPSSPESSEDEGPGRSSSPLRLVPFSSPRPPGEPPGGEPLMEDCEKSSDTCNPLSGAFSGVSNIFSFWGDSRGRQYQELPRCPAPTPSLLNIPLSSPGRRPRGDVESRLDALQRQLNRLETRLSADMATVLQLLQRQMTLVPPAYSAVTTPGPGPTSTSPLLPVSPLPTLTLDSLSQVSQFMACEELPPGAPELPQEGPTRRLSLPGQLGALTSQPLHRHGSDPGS

Hexokinase-4 = target: T1, Hexokinase-4 (Homo sapiens, UniProt P35557); test: Activity at glucokinase (unknown origin)
T1 sequence (P35557 whole entry): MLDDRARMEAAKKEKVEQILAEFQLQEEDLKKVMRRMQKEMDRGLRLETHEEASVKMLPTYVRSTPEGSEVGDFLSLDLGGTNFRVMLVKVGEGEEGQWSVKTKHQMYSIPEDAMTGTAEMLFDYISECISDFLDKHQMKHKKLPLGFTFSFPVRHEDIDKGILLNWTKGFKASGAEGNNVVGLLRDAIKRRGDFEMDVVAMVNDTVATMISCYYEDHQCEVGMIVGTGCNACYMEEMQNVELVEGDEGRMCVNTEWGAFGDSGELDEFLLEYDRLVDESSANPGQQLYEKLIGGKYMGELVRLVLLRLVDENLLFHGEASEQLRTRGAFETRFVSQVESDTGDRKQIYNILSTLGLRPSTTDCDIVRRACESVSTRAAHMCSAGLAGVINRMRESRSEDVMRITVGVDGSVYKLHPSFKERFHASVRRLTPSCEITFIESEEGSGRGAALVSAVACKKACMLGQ

Compound | clearance [1] [mL/min/kg] | CL free (Rattus norvegicus) [mL/min/kg] | logD [2] | pIC50 [3] | pEC50 (Hexokinase-4)
Cc1cnc(NC(=O)[C@H](COC2CCC2)Oc2ncnc3c2cnn3-c2ccccc2Cl)cn1 | 42 | 650 | 3.6 | 4.90 | 7.10
COC[C@H](Oc1ncnc2c1cnn2-c1ncccc1Cl)C(=O)Nc1ccc(C)cn1 | 9.3 |  | 2.3 | < 4.00 | 5.80
Cc1cnc(NC(=O)[C@H](COC(C)C)Oc2ncnc3c2cnn3-c2ccccc2Cl)cn1 | 61 | 130 | 2.1 | < 4.00 | 6.50
COCC[C@H](Oc1ncnc2c1cnn2-c1ncccc1Cl)C(=O)Nc1ccc(C)cn1 | 54 | 280 | 2.3 |  | 6.80
CCOC[C@H](Oc1ncnc2c1cnn2-c1ncccc1Cl)C(=O)Nc1ccc(F)cn1 |  |  | 2.4 |  | 
COC[C@H](Oc1ncnc2c1cnn2-c1ncccc1Cl)C(=O)Nc1cnc(C)cn1 | 4 |  | 1.4 | < 4.10 | 5.30
COC[C@H](Oc1ncnc2c1cnn2-c1ccccc1Cl)C(=O)Nc1ccc(C)cn1 | 3.8 |  | 3.4 | 4.30 | 6.50
Cc1ccc(NC(=O)[C@H](COC(C)C)Oc2ncnc3c2cnn3-c2ccccc2Cl)nc1 | 71 | 1400 | 3.9 | 4.50 | 6.90
CC(C)OC[C@H](Oc1ncnc2c1cnn2-c1ncccc1Cl)C(=O)Nc1ccc(F)cn1 |  |  | 2.7 | 4.10 | 
CC(C)OC[C@H](Oc1ncnc2c1cnn2-c1ccccc1Cl)C(=O)Nc1ccc(Cl)cn1 |  |  |  |  | 6.90
Cc1cnc(NC(=O)[C@H](COC2CCC2)Oc2ncnc3c2cnn3-c2ncccc2Cl)cn1 | 22 | 260 | 2.6 |  | 6.80
CCOC[C@H](Oc1ncnc2c1cnn2-c1ncccc1Cl)C(=O)Nc1ccc(C#N)cn1 |  |  | 2 | 4.70 | 6.20
CCOC[C@H](Oc1ncnc2c1cnn2-c1ccccc1Cl)C(=O)Nc1cnc(C)cn1 | 44 | 150 | 2.8 |  | 
CC(C)OC[C@H](Oc1ncnc2c1cnn2-c1ccccc1Cl)C(=O)Nc1ccc(F)cn1 |  |  | 3.9 |  | 6.70
CCOC[C@H](Oc1ncnc2c1cnn2-c1ncccc1Cl)C(=O)Nc1ccccn1 |  |  | 2.1 | < 4.00 | 6.30
CC(C)OC[C@H](Oc1ncnc2c1cnn2-c1ccccc1Cl)C(=O)Nc1ccccn1 |  |  | 3.5 | 4.20 | 6.90
COCC[C@H](Oc1ncnc2c1cnn2-c1ccccc1Cl)C(=O)Nc1ccc(C)cn1 | 37 | 500 | 3.6 | 4.70 | 
CC(C)OC[C@H](Oc1ncnc2c1cnn2-c1ccccc1Cl)C(=O)Nc1ccc(C#N)cn1 |  |  | 3.5 |  | 6.50
Cc1ccc(NC(=O)[C@H](COC2CCC2)Oc2ncnc3c2cnn3-c2ncccc2Cl)nc1 | 136 | 1500 | 3.2 | 4.40 | 6.80
CC(C)OC[C@H](Oc1ncnc2c1cnn2-c1ncccc1Cl)C(=O)Nc1ccc(Cl)cn1 |  |  | 3.5 | 4.20 | 6.40
CCOC[C@H](Oc1ncnc2c1cnn2-c1ncccc1Cl)C(=O)Nc1ccc(C)cn1 | 52 | 340 | 2.6 |  | 6.60
CC(C)OC[C@H](Oc1ncnc2c1cnn2-c1ncccc1Cl)C(=O)Nc1ccc(C#N)cn1 |  |  | 2.5 | 4.30 | 6.20
CC(C)OC[C@H](Oc1ncnc2c1cnn2-c1ncccc1Cl)C(=O)Nc1ccccn1 |  |  | 2.5 | < 4.00 | 6.30
CCOC[C@H](Oc1ncnc2c1cnn2-c1ncccc1Cl)C(=O)Nc1ccc(Cl)cn1 |  |  | 3 | 5.00 | 6.50
CCOC[C@H](Oc1ncnc2c1cnn2-c1ncccc1Cl)C(=O)Nc1cnc(C)cn1 | 50 | 320 | 1.8 | 4.80 | 5.90
Cc1ccc(NC(=O)[C@H](COC(C)C)Oc2ncnc3c2cnn3-c2ncccc2Cl)nc1 | 62 | 390 | 2.9 | < 4.00 | 
